Source: PMC10288505, “Photoswitchable Calixarene Activators for Controlled Peptide Transport across Lipid Membranes” (Journal of the American Chemical Society, 2023)

What was measured:
R3 = assay: Indicator displacement assay with host:LCG reporter pair, guest R3; format: binding; details: association constant, competitive dye displacement with LCG, 5 mM phosphate buffer pH 7.3, mean ± SD of triplicate
Description: The binding affinity of the anionic calixarene activators toward cationic peptides was investigated using a small library of highly hydrophilic oligoarginines, from 3 to 8 residues. These peptides are not able to spontaneously transverse zwitterionic artificial membranes in vesicle assays, which allows the accurate evaluation of the calixarenes 1 and 2 as counterion activators without interferences from the transport of the peptide alone.[43]−[45] First, the formation of host–guest complexes between 1/2 and the selected peptides was verified by indicator displacement assays using lucigenin (LCG) as the fluorescent indicator.[46] As previously reported for other sulfonatocalixarene derivatives,[46] the formation of host–guest binding pairs between calixarenes 1/2 in the E- and Z-forms and LCG results in significant static fluorescence quenching (see Figure 2A and Figures S26 and S27). Quantitative analysis of the fluorescence titration data using a 1:1 host:guest binding model allows the determination of the respective binding constants (K) reported in Table 1. As can be observed, both 1/2 display high affinity for the LCG dye, on the 10^7 M^–1 range, which seems to be independent of the nature and conformation of the azobenzene arm. […] The host:LCG binding pairs were then employed in the above-mentioned indicator displacement assays to investigate the binding affinity of oligoarginines toward 1 and 2 (see Figure 2B and Figures S29–S33).
The binding affinities of the counterion activators and peptide complexes were analyzed by indicator displacement assays. The fluorescent dye chosen for these experiments was lucigenin (LCG) due to its complex with the receptor SC4 being well characterized and due to the high variation of emission between its bound and free form. Firstly, the affinity for LCG was calculated for each of the activators, by titrations followed by fluorescence spectroscopy leading to almost full quenching of the emission. For the competitive assays, a concentration of LCG and activator was chosen in order to have approximately 90% of complexed dye and that mixture was then titrated with each of the peptides, leading to the regaining of emission when LCG was release from the complex.
Figure S26 - Fluorescence titration of the lucigenin dye with increasing concentrations of A) E-1 and B) Z–1 in water (5 mM phosphate buffer pH 7.3). LCG concentration was fixed 0.2 µM in all experiments, except for the first E-1 titrations were [LCG]
(1 picture or pasted object on this page, not shown here)
Figure S29 - Indicator displacement titration of the several oligoarginines A) R3 B) R4 C) R6 and D) R8, using SC4:LCG as the reporter pair (5 mM phosphate buffer pH 7.3). LCG and SC4 concentrations were fixed at A) 0.22 and 0.50 µM, for all three replicates, B) 0.22 and 4.7 µM for the first titration and 0.22 and 4.3 µM for the remaining two replicates, C) 0.22 and 0.45 µM and 1.1 and 0.85 µM and D) 0.28 and 0.43 µM and 1.1 and 0.85 µM, respectively, from left to right.
Figure S30 - Indicator displacement titration of the several oligoarginines A) R3 B) R4 C) R6 and D) R8, using E-1:LCG as the reporter pair (5 mM phosphate buffer pH 7.3) LCG and E-1 concentrations were fixed at A) 0.11 and 0.25 µM, for all three replicates, B) 0.22 and 0.5 µM, for the first two titrations and 0.22 and 0.23 µM for the remaining replicate, C) 4.0 and 3.8 µM and 0.22 and 0.5 µM, D) 4 and 3 µM and 0.22 and 0.5 µM, respectively, from left to right. […]

[1] = Photochemical characterisation (UV–vis absorption, 1H NMR) and thermal Z→E isomerization; format: physicochemical; details: for Fraction of E isomer in the photostationary state (PSS): irradiation of the Z-forms at 500 nm; for Thermal stability of the Z isomer: room temperature, time frame of the experiments
Description: The photochromic properties of 1 and 2 were investigated in diluted aqueous solution by UV–vis absorption spectroscopy and in CD3OD by ^1H NMR.
On the other hand, irradiation of the Z-forms at λirr = 500 nm originates a photostationary state (PSS) composed of 70 and 80% of E-1 (Φ1Z → E = 0.6) and E-2 (Φ2Z → E = 0.5), respectively (Figure 1 and Figure S23). As generally observed for other azobenzene photoswitches,[42] the E isomers can be quantitatively recovered in the dark through the thermal Z → E isomerization, with 1 and 2 presenting activation energies of 215 and 93 kJ/mol, respectively (Figures S24 and S25).

Compound | Apparent affinity constant K for R3 (R3) | Fraction of E isomer in the photostationary state (PSS) [1] | Thermal stability of the Z isomer [1]
O=S(=O)([O-])c1cc2c(O)c(c1)Cc1cc(S(=O)(=O)[O-])cc(c1O)Cc1cc(S(=O)(=O)[O-])cc(c1OCCCCCCOc1ccc(/N=N/c3ccccc3)cc1)Cc1cc(S(=O)(=O)[O-])cc(c1O)C2.[Li+].[Li+].[Li+].[Li+] [E-1] | (2.6 ± 0.8) × 10^6 M^–1 | 70% | –
CCCCc1ccc(/N=N/c2ccc(OCCCOc3c4cc(S(=O)(=O)[O-])cc3Cc3cc(S(=O)(=O)[O-])cc(c3O)Cc3cc(S(=O)(=O)[O-])cc(c3O)Cc3cc(S(=O)(=O)[O-])cc(c3O)C4)cc2)cc1.[Li+].[Li+].[Li+].[Li+] [E-2] | (4.1 ± 0.2) × 10^6 M^–1 | 80% | –
O=S(=O)([O-])c1cc2c(O)c(c1)Cc1cc(S(=O)(=O)[O-])cc(c1O)Cc1cc(S(=O)(=O)[O-])cc(c1OCCCCCCOc1ccc(/N=N\c3ccccc3)cc1)Cc1cc(S(=O)(=O)[O-])cc(c1O)C2.[Li+].[Li+].[Li+].[Li+] [Z-1] | (2.4 ± 0.6) × 10^6 M^–1 | – | minimal thermal interconversion at room temperature
CCCCc1ccc(/N=N\c2ccc(OCCCOc3c4cc(S(=O)(=O)[O-])cc3Cc3cc(S(=O)(=O)[O-])cc(c3O)Cc3cc(S(=O)(=O)[O-])cc(c3O)Cc3cc(S(=O)(=O)[O-])cc(c3O)C4)cc2)cc1.[Li+].[Li+].[Li+].[Li+] [Z-2] | (3.6 ± 0.3) × 10^6 M^–1 | – | minimal thermal interconversion at room temperature
